Measured values taken from patent publication EP3130590A1, “AROMATIC AZA COMPOUNDS AS VR1/TRPV1 LIGANDS” (Grünenthal GmbH, priority 2015, dated 2017).

Biological target: T1, vanilloid receptor 1 (VR1/TRPV1 receptor) (Homo sapiens, UniProt Q8NER1)
T1 construct: expressed in transfected cells; host or cells: CHO K1
Assay: Functional testing on the vanilloid receptor 1 (FLIPR Ca2+ influx assay, capsaicin stimulation)
Format: cell-based
Settings: capsaicin (CAP) 100 nM; for inhibition at 1 µM: @ 1 µM test compound; for inhibition at 1 µM / inhibition at 5 µM: relative to maximum achievable inhibition with 10 µM capsazepine, read-out: inhibition (in %), column (f) Ki human [nM] CAP; for inhibition at 5 µM: @ 5 µM test compound
Experimental: Furthermore, preference may be given to compounds according to the invention that cause a 50 per cent displacement of capsaicin, which is present at a concentration of 100 nM, in a FLIPR assay with CHO K1 cells which were transfected with the human VR1 gene at a concentration of less than 6,000 nM, preferably less than 5,000 nM, more preferably less that 3,000 nM or less than 1,000 nM and particularly preferably less than 300 nM, most particularly preferably less than 100 nM, even more preferably less than 75 nM, additionally preferably less than 50 nM, most preferably less than 10 nM.
In the process, the Ca^2+ influx is quantified in the FLIPR assay with the aid of a Ca^2+-sensitive dye (type Fluo-4, Molecular Probes Europe BV, Leiden, the Netherlands) in a fluorescent imaging plate reader (FLIPR, Molecular Devices, Sunnyvale, USA), as described hereinafter. […]
The FLIPR protocol consists of 2 substance additions. First the compounds to be tested (10 µM) are pipetted onto the cells and the Ca^2+ influx is compared with the control (capsaicin 10 µM). This provides the result in % activation based on the Ca^2+ signal after the addition of 10 µM of capsaicin (CP). After 5 min incubation, 100 nM of capsaicin are applied and the Ca^2+ influx is also determined. Desensitising agonists and antagonists lead to suppression of the Ca^2+ influx. The % inhibition is calculated compared to the maximum achievable inhibition with 10 µM of capsazepine.
Triple analyses (n=3) are carried out and repeated in at least 3 independent experiments (N=4). Starting from the percentage displacement caused by different concentrations of the compounds to be tested of general formula I, IC50 inhibitory concentrations which cause a 50% displacement of capsaicin were calculated.
Ki values for the test substances were obtained by conversion by means of the Cheng-Prusoff equation (Cheng, Prusoff; Biochem. Pharmacol. 22, 3099-3108, 1973).
The affinity of selected compounds according to the invention for the vanilloid receptor 1 (VR1/TRPV1 receptor) was determined as described hereinbefore.
The value after the "@"symbol indicates the concentration at which the indicated inhibition (in %) was respectively determined.

[1] = functional (f), Ki from IC50 by Cheng-Prusoff equation, "ne" = did not show any effect in this assay

T1 sequence (Q8NER1 whole entry): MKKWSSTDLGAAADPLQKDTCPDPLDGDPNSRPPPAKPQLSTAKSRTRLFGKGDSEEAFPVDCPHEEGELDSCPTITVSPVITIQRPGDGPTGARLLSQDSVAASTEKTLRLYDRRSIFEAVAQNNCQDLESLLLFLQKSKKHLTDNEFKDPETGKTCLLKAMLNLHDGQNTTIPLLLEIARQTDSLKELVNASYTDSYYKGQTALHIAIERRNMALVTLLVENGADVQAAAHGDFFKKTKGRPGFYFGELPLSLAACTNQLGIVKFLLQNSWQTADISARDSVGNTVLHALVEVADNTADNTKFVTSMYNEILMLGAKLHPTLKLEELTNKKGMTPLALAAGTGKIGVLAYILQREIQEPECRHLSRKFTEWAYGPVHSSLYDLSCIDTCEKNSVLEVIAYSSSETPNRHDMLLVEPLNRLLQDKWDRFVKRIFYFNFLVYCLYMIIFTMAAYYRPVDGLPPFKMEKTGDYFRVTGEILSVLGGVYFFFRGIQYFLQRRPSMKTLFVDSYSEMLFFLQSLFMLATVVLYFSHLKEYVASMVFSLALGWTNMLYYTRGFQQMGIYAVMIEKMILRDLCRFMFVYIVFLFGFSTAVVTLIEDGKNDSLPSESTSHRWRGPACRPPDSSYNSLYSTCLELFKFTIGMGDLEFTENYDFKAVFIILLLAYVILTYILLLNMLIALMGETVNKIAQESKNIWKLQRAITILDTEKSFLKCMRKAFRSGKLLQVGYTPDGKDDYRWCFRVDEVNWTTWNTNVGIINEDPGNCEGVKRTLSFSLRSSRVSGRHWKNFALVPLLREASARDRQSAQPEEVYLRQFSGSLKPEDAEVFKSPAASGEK

| Compound | inhibition at 1 µM | inhibition at 5 µM | (f) Ki human [nM] CAP [1] | Ki [1] |
| --- | --- | --- | --- | --- |
| CC1CCN(c2nc(C(F)(F)F)ccc2CNC(=O)NC2CCCc3c2cnn3C)CC1 (stereo not drawn) [compound 5, 1-(1-methyl-4,5,6,7-tetrahydro-1H-indazol-4-yl)-3-((2-(4-methylpiperidin-1-yl)-6-(trifluoromethyl)pyridin-3-yl)methyl)urea] | 0% | 27% |  |  |
| CC1CCN(c2nc(C(F)(F)F)ccc2CNC(=O)C(C)C2CCCc3ccc(O)cc32)CC1 (stereo not drawn) [comp. no. 6, 2-(7-hydroxy-1,2,3,4-tetrahydronaphthalen-1-yl)-N-((2-(4-methylpiperidin-1-yl)-6-(trifluoromethyl)pyridin-3-yl)methyl)propanamide] |  |  |  | 28.6 nM |

The next lines start with the values.

| inhibition at 1 µM | inhibition at 5 µM | (f) Ki human [nM] CAP [1] | Ki [1] | Compound |
| --- | --- | --- | --- | --- |
| 0% | 89% |  |  | CC1CCN(c2nc(C(F)(F)F)ccc2CNC(=O)NC2Cc3ccccc3C2)CC1 [compound 3, 1-(2,3-dihydro-1H-inden-2-yl)-3-((2-(4-methylpiperidin-1-yl)-6-(trifluoromethyl)pyridin-3-yl)methyl)urea] |
|  |  | ne |  | CC1CCN(c2nc(C(F)(F)F)ccc2CNC(=O)NC2CCc3ccccc32)CC1 (stereo not drawn) [compound 1, 1-(2,3-dihydro-1H-inden-1-yl)-3-((2-(4-methylpiperidin-1-yl)-6-(trifluoromethyl)pyridin-3-yl)methyl)urea] |
| 0% | 36% |  |  | CC1CCN(c2nc(C(F)(F)F)ccc2CNC(=O)NC2CCCc3ccccc32)CC1 (stereo not drawn) [compound 2, 1-((2-(4-methylpiperidin-1-yl)-6-(trifluoromethyl)pyridin-3-yl)methyl)-3-(1,2,3,4-tetrahydronaphthalen-1-yl)urea] |
|  |  |  | 6.1 nM | CC1CCN(c2nc(C(F)(F)F)ccc2CNC(=O)NC2CCCc3ccc(O)cc32)CC1 (stereo not drawn) [compound 4, 1-(7-hydroxy-1,2,3,4-tetrahydronaphthalen-1-yl)-3-((2-(4-methylpiperidin-1-yl)-6-(trifluoromethyl)pyridin-3-yl)methyl)urea] |
